Tests used:
[1] = test system: strain CB1190, strain D11, and strain D17; assay: Proliferation of 1,4-dioxane-degrading bacteria in the presence of diethylene glycol (Example 1); type: cell-based; conditions: 28° C., nine days
Procedure: Strain CB1190, strain D11, and strain D17 were used as 1,4-dioxane-degrading bacteria. Each degradation bacterium was cultured for ten days using a CGY medium (casitone: 5 g/L, glycerin: 5 g/L, yeast extract: 1 g/L) containing 1,4-dioxane at a concentration of 500 mg/L. After cultivation, the bacterial cells were harvested and washed with a centrifugal separator, and then mixed with 20 mL of physiological saline, in such a manner that an inoculum suspension was obtained. It should be noted that an inoculum suspension (OD600: approximately 10) which was turbidity-standardized using a spectrophotometer was used as the inoculum suspension. […]
The bacterial cells in the culture solution were collected as […] by suction filtration after the culture was finished. Then, the […] was dried at 105° C. overnight, and the weight of the bacterial cells was measured, in such a manner that the bacterial cell concentration (mg-dry cell/L) was obtained. Proliferation of the bacterial cells was evaluated by Δ bacterial cell concentration obtained by subtracting the initial bacterial cell concentration from the bacterial cell concentration on the ninth day of culture. […]

strain D17 = assay: Bacterial cell concentration measurement at different diethylene glycol concentrations (Examples 3 to 7); type: cell-based, Pseudonocardia sp. D17; conditions: diethylene glycol increased from 1 g/L to 10 g/L, seven days
Procedure: 100 mL of a liquid medium (medium composition: K2HPO4: 1 g/L, (NH4)2SO4: 1 g/L, NaCl: 50 mg/L, MgSO4.7H2O: 200 mg/L, FeCl3: 10 mg/L, CaCl2: 50 mg/L, pH: 7.3) containing diethylene glycol of 1 g/L was added to an Erlenmeyer flask equipped with baffles with a volume of 300 mL. Next, strain D17 which was inoculated in the MGY medium in advance was cultured (initial bacterial cell concentration: 111 mg-dry cell/L) and was subjected to the rotary shaking culture at 28° C. and 120 rpm for seven days.
Degradation bacteria were cultured in the same manner as in Example 3 except that the concentration of diethylene glycol in the liquid medium was set to be 5 g/L. […]
The bacterial cells in the culture solution were collected as a filter residue through suction filtration after the cultivation was finished and the bacterial cells were dried at 105° C. overnight, and then the weight of the collected bacterial cells was measured. The bacterial cell concentration (mg-dry cell/L) was obtained from the value of the measured bacterial cell weight. […] The proliferation property of the bacterial cells was evaluated by Δ bacterial cell concentration which was obtained by subtracting the initial bacterial cell concentration from the bacterial cell concentration on the seventh day of culturing.

SDIMO-bearing bacteria = assay: PCR detection of SDIMO gene in contaminated soil cultured with diethylene glycol (Example 9); type: cell-based; conditions: seven contaminated soil samples, diethylene glycol 20 g/L, six days
Procedure: The proliferation of SDIMO-bearing bacteria by culturing in a medium supplemented with diethylene glycol was investigated in seven types of soil collected from different places at sites contaminated with 1,4-dioxane. It should be noted that the proliferation of SDIMO-bearing bacteria was evaluated by an increase in PCR amplification products of about 420 bp derived from a SDIMO-encoding gene (a SDIMO gene).
The soil with a wet weight of 10 g was added to an Erlenmeyer flask of 300 ml in which the liquid medium of 90 ml (medium composition: K2HPO4: 1 g/L, (NH4)2SO4: 1 g/L, NaCl: 50 mg/L, MgSO4.7H2O: 200 mg/L, FeCl3: 10 mg/L, CaCl2: 50 mg/L, pH: 7.0) was placed. Then, diethylene glycol was added such that the final concentration became 20 g/L and the rotary shaking culture was carried out at 28° C. and 120 rpm.
The samples were collected immediately after diethylene glycol was added and after six days by 5 ml, respectively, and a supernatant was removed by centrifugation (10,000×g, 4° C., 5 min), and then DNA was recovered from the soil of 0.5 g (of wet weight). For DNA extraction, a soil DNA extraction kit (manufactured by Nippon Gene Co., Ltd., product name: ISOIL for Beads Beating) was used and the extracted DNA was purified using a DNA fragment purification kit (Toyobo Co., Ltd., product name: MagExtractor-PCR & Gel Clean up-). […]

SMILES: OCCOCCO [diethylene glycol]
- proliferation properties (Δ bacterial cell concentration) ([1]; diethylene glycol 1 g/L as carbon source, all three degradation bacteria): could grow using diethylene glycol as a carbon source
- proliferation properties (Δ bacterial cell concentration) ([1]; diethylene glycol 1 g/L, strain D17): extremely high proliferation properties
- bacterial cell concentration (strain D17): increased
- PCR amplification product of about 420 bp (SDIMO gene) before and after culturing (SDIMO-bearing bacteria): preferentially proliferated SDIMO-bearing bacteria
